Reference: US9606107B2, “Crk—a novel target for cancer therapy” (priority 2011, dated 2017)
Peptide text beside a SMILES is read from it. * marks the point of attachment. Cbz = O=C(OCc1ccccc1)*; CH2F = FC*

Key:
Format in all cases: cell-based
HeLa cells [1] = assay: Apoptosis / cell death of transiently transfected HeLa cells by IF time-lapse video microscopy with propidium iodide
Source text: FIGS. 2A-2D illustrate photographically, graphically and in a chart that transient transfection of DN Crk induces cell death in HeLa cells. Specifically, HeLa cells were transiently transfected with wild type CrkI (pCrkI), SH2 DN (pCrkI/R38K), or SH3 DN (pCrkI/W170K) fused to C FP in the absence (FIG. 2A) or presence (FIG. 2B) of carbobenzoxy-valyl-alanyl-aspartyl-[O-methyl], or ZVAD. The tabulated results shown in FIG. 2D, were collected from multiple videos. The time to death was defined as the time of expression of transfected gene (appearance of green) to the time of PI uptake (appearance of yellow) and expressed as the mean+SEM.
We postulated that if modification of Crk by ExoT is responsible for inducing anoikis, DN mutations in CrkI domains might also result in apoptosis, phenocopying the ExoT's cytotoxicity. To investigate this hypothesis, HeLa cells were transfected with mammalian expression vectors harboring CrkI or its SH2 (CrkI/R38K) or SH3 (CrkI/W170K) DN mutant forms, fused at their C-termini to GFP, and assessed apoptosis by IF video microscopy in the presence or absence of Z-VAD, a pancaspase inhibitor that blocks known apoptotic cell deaths. […]
(§1) ExoT inhibits ASCS formation. […] We assessed the proliferation capacity index associated with ExoT- or CrkI apoptotic cells. […]

HeLa cells [2] = assay: ACSC formation, release and signalling in transfected apoptotic HeLa cells (IF time-lapse microscopy)
Source text: Specifically, HeLa cells were transiently transfected with CrkI-GFP expression vector. CrkI forms complexes (indicated […] which go through a cytoplasmic bridge from a dying cell (indicated by red arrow) and induce healthy neighbor recipient cells (indicated by yellow arrow) to divide. Six frames (FIGS. 3A-3F) from IF timelapse microscopy are shown.
FIG. 4 graphically illustrates that ACSC formation is an active process. Specifically, the incidence of apoptotic compensatory signaling complex (ACSC) release from CrkI, CrkI-R38K (SH2 DN), and CrkI-VV170K (SH3 DN) transfected HeLa cells is shown in bar chart form.
FIG. 5 graphically illustrates that ACSC formation is regulated differently by SH2 and SH3 domains. Specifically, the number of ACSC complexes per apoptotic CrkI, CrkI (SH2 DN), and CrkI (SH3 DN) transfected HeLa cells was determined and the results are presented in bar chart form.
FIGS. 6A-6C photographically illustrate that the ADPRT domain of ExoT appears to inhibit ACSC. […]
as §1

[3] = system: 4T1 metastatic breast tumor cells; assay: Cytotoxicity in 4T1 metastatic breast tumor cells by PI staining, immunofluorescent timelapse microscopy
Experimental: Specifically, in FIGS. 9A-9C, 4T1 cells were infected with PA103 strains expressing ExoT or defective in ExoT expression (Mock), or treated with 50 μM cisplatinum (Cisplatin).
Specifically, 4T1 cells were infected with PA103 strains expressing ExoT (ExoT) […] or defective in ExoT expression (Mock) (FIG. 9A), or treated with 50 μM cisplatinum (Cisplatin) (FIG. 9C). Cytotoxicity was determined by propidium iodide (PI) staining using immunofluorescent timelapse microscopy (FIG. 9D).

B16 melanoma cells = assay: Cytotoxicity in B16 melanoma cells by PI staining, immunofluorescent time lapse microscopy; details: infection with ExoT-expressing P. aeruginosa, MOI 10, or transfection with ExoT-EGFP
Experimental: Specifically, FIGS. 8A-8C are photographs of B16 cells infected with Pseudomonas aeruginosa strains expressing ExoT or defective in ExoT (Mock) at a multiplicity of infection (MOI) 10 or treated with 50 μM cisplatinum. Cytotoxicity was determined by measuring propidium iodide (PI) staining using immunofluorescent time lapse microscopy. FIG. 8D graphically illustrates the level of cell death, for the samples of FIGS. 8A-8C as indicated by PI staining intensity in pixels as measured from each frame using NIH Image J software.
B16 cells were infected with Pseudomonas aeruginosa strains expressing ExoT or defective in ExoT (Mock), at multiplicity of infection (MOI) 10 or treated with 50 μM cisplatinum (FIGS. 8A-8C). Cytotoxicity was determined by measuring propidium iodide (PI) staining (red) using immunofluorescent time lapse microscopy. Still images are shown. The level of cell death, indicated by PI staining intensity (pixels), was measured from each frame using NIH Image J software (FIG. 8D). B16 melanoma cells were transiently transfected with pIRES expression vectors, harboring ExoT-EGFP or EGFP alone. Cytotoxicity was determined by PI staining using IF microscopy.

HeLa-S3 cells = assay: Cytotoxicity of ExoT-expressing PA103 infection in anoikis-resistant HeLa-S3 cells (PI uptake, video microscopy); details: ExoT-expressing PA103 strain, MOI about 10
Experimental: Anoikis-sensitive (HeLa) or Anoikis-resistant (HeLa S3) cells were infected with the ExoT-expressing PA strain (PA103 AU) at an MOI of ca. 10. Host cell death was assessed by uptake of propidium iodide (PI) by simultaneous time lapse phase and fluorescent video microscopy. Video images were captured every 15 min. Representative frames are shown.
To test this hypothesis, 1×10^5 HeLa and HeLa-S3 cells were infected with ExoT-expressing PA103 strain at MOI of about 10 and assessed apoptosis by immunofluorescent (IF) video microscopy in the presence of propidium iodide (PI) as described.

HeLa cells [4] = assay: Proliferation capacity index of transfected apoptotic cells (mitotic cells in neighbouring cells); details: compared to CrkI-transfected apoptotic cells; within six hours after cell rounding
Source text: FIG. 7 graphically illustrates that ExoT blocks ACSC-induced proliferation in surrounding cells. Specifically, the proliferation capacity index of the CrkI-EGFP or ExoTEGFP transfected apoptotic cells was defined based on the capacity to induce proliferation in the neighboring cells within six hours after cell rounding.
ExoT inhibits ASCS formation. […] If ExoT inhibited ACSC assembly and signaling, it was reasoned that there should be a reduction in the number of mitotic cells surrounding the ExoT-induced apoptotic cells. We assessed the proliferation capacity index associated with ExoT- or CrkI apoptotic cells. […] Without being bound to any particular theory, it is believed that CrkI adaptor protein functions as a scaffold for the ACSC assembly and that PA utilizes ExoT to block this process while inducing apoptosis in its target host.

COC(=O)C[C@H](NC(=O)[C@H](C)NC(=O)[C@@H](NC(=O)OCc1ccccc1)C(C)C)C(=O)CF [Z-VAD, carbobenzoxy-valyl-alanyl-aspartyl-[O-methyl], reference compound] (Cbz-Val-Ala-Asp(OMe)-CH2F)
apoptotic PCD (HeLa cells [1]; treatment with Z-VAD): blocked
ACSC formation (HeLa cells [2]; treatment with Z-VAD, all conditions): completely blocked

N.N.[Cl][Pt][Cl] [cisplatin, cisplatinum, reference compound]
cell death in 4T1 cells ([3]; 50 μM cisplatinum): kill 4T1 cells

ExoT
apoptosis (cell death) in transfected HeLa cells (HeLa cells [1]; transient transfection with expression vector, IF video microscopy, PI): 100%
cell death in 4T1 cells ([3]; infection with PA103 strain expressing ExoT): potent inducer of cell death
ACSC-like globular complexes in transfected apoptotic HeLa cells (HeLa cells [2]; transfection with ExoT fusion vectors): never observed
cytotoxicity in B16 melanoma cells (B16 melanoma cells): potent cytotoxicity
ExoT-induced cytotoxicity in HeLa-S3 cells (HeLa-S3 cells): resistant
percentage of mitotic cells surrounding transfected apoptotic HeLa cells (HeLa cells [4]): substantial reduction
